Measurements from US12453769B2 (priority 2019, dated 2025).

Test system: gE-specific IFN-γ
Parameters: species or system C57BL/6(N) mice
Conditions: mouse, in vivo

In the case of QS-21, the “induced production level of gE-specific IFN-γ (ELISPOT spot)” value is reported as “the best effect”.
